# Results taken from patent US8124580B2, “Apolipoprotein A1 mimetics and uses thereof” (Trustees of Tufts College, priority 2004, dated 2012).
# “Also recorded” adds a separate entry of the source. [ ]: non-standard residue; d: D form.
# Assays:
# [1] = Association with DMPC phospholipid, gel filtration chromatography; assay type: binding; conditions: FIGS. 2A-D
# Text: To assess the ability of purified Rev-D4F to interact with phospholipids, the purified peptidomimetic was mixed with 1,2-dimyristoyl-sn-glycero-3-phosphocholine (DMPC), which is a component of membrane lipid bi-layer with which cholesterol is associated, and fractionated by gel filtration chromatography.
# [2] = target: T1, Scavenger receptor class B type I (SR-BI) (Homo sapiens, UniProt Q8WTV0); assay: SR-BI-dependent cholesterol efflux from SR-BI-transfected cells; assay type: cell-based
# T1 construct: expressed in transfected cells
# T1 sequence (Q8WTV0 1-509 isoform Q8WTV0-2): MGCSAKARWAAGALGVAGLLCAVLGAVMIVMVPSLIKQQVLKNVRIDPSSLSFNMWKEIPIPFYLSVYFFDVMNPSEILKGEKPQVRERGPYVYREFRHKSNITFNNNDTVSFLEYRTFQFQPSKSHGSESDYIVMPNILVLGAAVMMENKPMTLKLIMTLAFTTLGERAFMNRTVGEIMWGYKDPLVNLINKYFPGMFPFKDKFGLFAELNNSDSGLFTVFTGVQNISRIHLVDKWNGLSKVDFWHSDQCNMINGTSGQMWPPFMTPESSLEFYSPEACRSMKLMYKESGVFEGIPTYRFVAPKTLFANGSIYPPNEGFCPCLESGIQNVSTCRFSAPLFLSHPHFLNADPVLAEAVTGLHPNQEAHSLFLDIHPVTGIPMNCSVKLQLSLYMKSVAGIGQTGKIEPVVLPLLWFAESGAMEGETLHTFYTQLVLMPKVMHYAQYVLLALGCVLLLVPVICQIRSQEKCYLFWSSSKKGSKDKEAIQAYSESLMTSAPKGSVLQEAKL
# Experimental: (§1) The effect of Rev-D4F on the cholesterol efflux in a […] was examined. Scavenger receptor class B type I (“SR-BI”) is a receptor for HDL normally expressed on the surface of the liver cells. Tritiated cholesterol was added to cells transfected with SR-BI, with wild type Apo A-I, L4F peptide, D4F peptide, or Rev-D4F peptidomimetic, and the percentage of cholesterol efflux was determined.
# [3] = target: T2, ATP-binding cassette protein A1 (ABCA1) (Homo sapiens, UniProt O95477); assay: ABCA1-dependent cholesterol efflux from ABCA1-transfected cells; assay type: cell-based
# T2 construct: expressed in transfected cells
# T2 sequence (O95477 whole entry, species assumed): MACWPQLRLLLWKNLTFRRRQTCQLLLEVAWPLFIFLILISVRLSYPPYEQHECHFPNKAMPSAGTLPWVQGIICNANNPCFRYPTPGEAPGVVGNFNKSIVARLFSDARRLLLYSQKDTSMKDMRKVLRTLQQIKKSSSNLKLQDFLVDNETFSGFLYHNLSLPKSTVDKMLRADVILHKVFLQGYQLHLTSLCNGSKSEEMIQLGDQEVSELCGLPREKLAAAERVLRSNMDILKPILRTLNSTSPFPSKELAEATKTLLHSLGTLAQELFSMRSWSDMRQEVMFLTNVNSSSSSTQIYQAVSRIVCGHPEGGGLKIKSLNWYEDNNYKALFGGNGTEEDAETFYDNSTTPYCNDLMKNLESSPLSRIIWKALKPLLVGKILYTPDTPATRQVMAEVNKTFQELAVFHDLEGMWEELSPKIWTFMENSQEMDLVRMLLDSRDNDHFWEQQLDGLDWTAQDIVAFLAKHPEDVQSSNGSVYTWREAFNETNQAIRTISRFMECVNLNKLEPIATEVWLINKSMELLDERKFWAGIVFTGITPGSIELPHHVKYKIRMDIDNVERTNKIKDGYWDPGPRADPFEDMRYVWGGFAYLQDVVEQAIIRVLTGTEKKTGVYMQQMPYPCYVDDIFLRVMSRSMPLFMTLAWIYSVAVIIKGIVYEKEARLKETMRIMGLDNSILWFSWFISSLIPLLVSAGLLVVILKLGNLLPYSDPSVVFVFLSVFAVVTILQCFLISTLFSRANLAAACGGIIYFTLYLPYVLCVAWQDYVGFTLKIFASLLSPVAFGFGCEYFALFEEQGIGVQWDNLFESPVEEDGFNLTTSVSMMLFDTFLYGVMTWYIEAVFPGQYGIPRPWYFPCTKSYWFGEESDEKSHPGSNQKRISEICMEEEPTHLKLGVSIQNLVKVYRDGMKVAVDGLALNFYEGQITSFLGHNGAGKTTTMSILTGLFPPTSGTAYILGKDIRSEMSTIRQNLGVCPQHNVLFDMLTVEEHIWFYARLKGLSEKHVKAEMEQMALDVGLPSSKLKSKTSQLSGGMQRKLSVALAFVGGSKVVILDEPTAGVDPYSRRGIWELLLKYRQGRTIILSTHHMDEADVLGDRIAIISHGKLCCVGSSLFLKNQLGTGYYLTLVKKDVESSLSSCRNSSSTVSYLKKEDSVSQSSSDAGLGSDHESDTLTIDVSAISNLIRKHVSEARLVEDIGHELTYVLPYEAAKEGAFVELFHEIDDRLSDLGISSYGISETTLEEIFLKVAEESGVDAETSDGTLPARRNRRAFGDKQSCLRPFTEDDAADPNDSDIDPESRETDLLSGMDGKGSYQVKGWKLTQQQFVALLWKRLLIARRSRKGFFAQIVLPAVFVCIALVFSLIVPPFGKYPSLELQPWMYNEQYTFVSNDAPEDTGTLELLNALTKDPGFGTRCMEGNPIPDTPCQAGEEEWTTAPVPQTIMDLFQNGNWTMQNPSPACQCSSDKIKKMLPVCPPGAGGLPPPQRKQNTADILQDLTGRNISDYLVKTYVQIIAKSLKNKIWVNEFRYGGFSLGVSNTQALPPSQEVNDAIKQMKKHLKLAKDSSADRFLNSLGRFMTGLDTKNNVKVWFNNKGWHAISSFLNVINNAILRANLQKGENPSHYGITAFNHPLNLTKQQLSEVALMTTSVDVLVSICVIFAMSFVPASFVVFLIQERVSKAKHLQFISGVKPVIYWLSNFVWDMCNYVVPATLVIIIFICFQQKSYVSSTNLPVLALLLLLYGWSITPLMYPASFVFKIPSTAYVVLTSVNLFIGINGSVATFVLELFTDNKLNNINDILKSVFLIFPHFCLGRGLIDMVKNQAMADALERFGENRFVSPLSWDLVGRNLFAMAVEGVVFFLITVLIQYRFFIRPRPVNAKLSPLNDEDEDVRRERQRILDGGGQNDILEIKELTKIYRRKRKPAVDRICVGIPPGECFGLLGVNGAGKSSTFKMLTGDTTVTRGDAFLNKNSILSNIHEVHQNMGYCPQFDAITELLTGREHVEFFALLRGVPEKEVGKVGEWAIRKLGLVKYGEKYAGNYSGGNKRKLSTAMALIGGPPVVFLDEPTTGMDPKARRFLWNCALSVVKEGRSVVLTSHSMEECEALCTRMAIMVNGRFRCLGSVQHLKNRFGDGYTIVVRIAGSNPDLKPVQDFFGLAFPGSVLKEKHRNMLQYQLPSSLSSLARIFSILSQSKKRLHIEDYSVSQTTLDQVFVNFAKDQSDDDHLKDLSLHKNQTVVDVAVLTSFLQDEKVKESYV
# Experimental: as §1
# The effect of Rev-D4F on the cholesterol efflux in a manner dependent on ATP-binding cassette protein A1 (“ABCA1”) was also examined using the same methodology as for SR-BI, except that ABCA1 was transfected.
# [4] = test system: human aortic endothelial cells; assay: Lipid peroxidation caused by human aortic endothelial cells (TBARS); assay type: cell-based; conditions: FIG. 5; for lipid peroxidation (TBARS) caused by endothelial cells: human aortic endothelial cells as oxidant
# Text: (§2) The present study measured the ability of Rev-D4F, D-4F, and L-4F mimetic peptides to inhibit lipid peroxidation caused by human aortic endothelial cells and copper(II) sulfate, based upon inhibiting an increase in concentrations of thiobarbituric acid-reactive substances (TBARS).
# [5] = test system: lipid peroxidation caused by copper(II) sulfate; assay: Lipid peroxidation caused by copper(II) sulfate (TBARS); assay type: biochemical; conditions: copper(II) sulfate as oxidant, FIG. 6
# Text: as §2
# [6] = test system: monocyte chemotactic protein-1 (MCP-1) mRNA; assay: MCP-1 mRNA expression in endothelial cells; assay type: cell-based
# Text: This study analyzed the effects of Rev-D4F, D-4F, and L-4F mimetic peptides to reduce the levels of an […] marker, monocyte chemotactic protein-1 (MCP-1). Based upon levels of MCP-1 mRNA, all three peptidomimetics reduced the amount of MCP-1.
# apoE-null mice = assay: Atherosclerosis in apoE-null mice, oral in drinking water; assay type: in vivo; conditions: aortic root, 1.6 mg/day orally, 6 weeks; for decrease in lesion area as compared to water control: p<0.02
# Experimental: In this study, the comparative effect of Rev-D4F, D-4F, and L-4F mimetic peptides on atherosclerosis in apoE-null mice was measured. Four groups of apoE-null mice (4 weeks old, n=15) were fed a chow diet, and administered water (control), Rev-D4F, D-4F, or L-4F mimetic peptides (1.6 mg/day, n=12/group) orally in drinking water for 6 weeks. Quantitative morphometry of aortic root cross sections stained with oil-red O was performed with NIH software.
# LDL receptor-null mice = conditions: oral administration; cited from earlier work
# LDL = conditions: cited from earlier work; for LDL oxidation: previously shown
# [7] = test system: LDL-induced monocyte chemotactic activity; conditions: previously shown; cited from earlier work
# [8] = in vivo; cited from earlier work
efficiency in promoting SR-BI-dependent cholesterol efflux compared to Apo A-I ([2]; per mole basis),efficiency in promoting SR-BI-dependent cholesterol efflux compared to Apo A-I ([2]; per weight basis),efficiency in promoting ABCA1-dependent cholesterol efflux compared to Apo A-I ([3]; per mole basis),efficiency in promoting ABCA1-dependent cholesterol efflux compared to Apo A-I ([3]; per weight basis),Substance,spontaneous association with DMPC (co-elution with phospholipid) [1],lipid peroxidation (TBARS) caused by endothelial cells [4],lipid peroxidation (TBARS) caused by copper sulfate [5],MCP-1 mRNA level ([6]; FIG. 7),decrease in lesion area as compared to water control (apoE-null mice) [%],reduction of atherosclerotic lesions (LDL receptor-null mice) [%],LDL oxidation (LDL),LDL-induced monocyte chemotactic activity [7],stability upon oral administration [8],effect on atherosclerotic lesions (apoE-null mice),LDL and phospholipid oxidation (LDL; mechanisms independent of HDL-mediated processes),inhibition in lipid peroxidation compared with D-4F ([4]; endothelial cells as oxidant),lipid peroxidation (TBARS) caused by endothelial cells ([4]; listed as Rev D-4-F),inhibition in lipid peroxidation compared with D-4F [5],lipid peroxidation (TBARS) caused by copper sulfate ([5]; listed as Rev D-4-F),"MCP-1 mRNA level ([6]; FIG. 7, listed as Rev D-4-F)"
less efficient,more efficient,less efficient,more efficient,Ac-D-W-F-K-A-F-Y-D-K-V-A-E-K-F-K-E-A-F-NH2 [D-4F] (Ac-[dD][dW][dF][dK][dA][dF][dY][dD][dK][dV][dA][dE][dK][dF][dK][dE][dA][dF]-NH2),associated spontaneously,significantly decreased; also recorded: inhibit,significantly decreased; also recorded: inhibit,reduced; also recorded: inhibit,33,~80,block,block,stable,–,–,–,–,–,–,–
less efficient,more efficient,less efficient,more efficient,Ac-D-W-F-K-A-F-Y-D-K-V-A-E-K-F-K-E-A-F-NH2 [L-4F] (Ac-DWFKAFYDKVAEKFKEAF-NH2),associated spontaneously,significantly decreased; also recorded: inhibit,significantly decreased; also recorded: inhibit,reduced; also recorded: inhibit,–,–,block,block,–,no effect,inhibits,–,–,–,–,–
–,–,–,–,Apo A-I: the major HDL apoprotein; intact/wild type protein used as comparator,only certain portions,–,–,–,–,–,–,–,–,–,–,–,–,–,–,–

Substance,efficiency in promoting SR-BI-dependent cholesterol efflux compared to Apo A-I ([2]; per mole basis),efficiency in promoting SR-BI-dependent cholesterol efflux compared to Apo A-I ([2]; per weight basis),efficiency in promoting ABCA1-dependent cholesterol efflux compared to Apo A-I ([3]; per mole basis),efficiency in promoting ABCA1-dependent cholesterol efflux compared to Apo A-I ([3]; per weight basis),spontaneous association with DMPC (co-elution with phospholipid) [1],lipid peroxidation (TBARS) caused by endothelial cells [4],lipid peroxidation (TBARS) caused by copper sulfate [5],MCP-1 mRNA level ([6]; FIG. 7),decrease in lesion area as compared to water control (apoE-null mice) [%],reduction of atherosclerotic lesions (LDL receptor-null mice) [%],LDL oxidation (LDL),LDL-induced monocyte chemotactic activity [7],stability upon oral administration [8],effect on atherosclerotic lesions (apoE-null mice),LDL and phospholipid oxidation (LDL; mechanisms independent of HDL-mediated processes),inhibition in lipid peroxidation compared with D-4F ([4]; endothelial cells as oxidant),lipid peroxidation (TBARS) caused by endothelial cells ([4]; listed as Rev D-4-F),inhibition in lipid peroxidation compared with D-4F [5],lipid peroxidation (TBARS) caused by copper sulfate ([5]; listed as Rev D-4-F),"MCP-1 mRNA level ([6]; FIG. 7, listed as Rev D-4-F)"
Ac-F-A-E-K-F-K-E-A-V-K-D-Y-F-A-K-F-W-D-NH2 (Ac-[dF][dA][dE][dK][dF][dK][dE][dA][dV][dK][dD][dY][dF][dA][dK][dF][dW][dD]-NH2; SMILES CC(=O)N[C@H](Cc1ccccc1)C(=O)N[C@H](C)C(=O)N[C@H](CCC(=O)O)C(=O)N[C@H](CCCCN)C(=O)N[C@H](Cc1ccccc1)C(=O)N[C@H](CCCCN)C(=O)N[C@H](CCC(=O)O)C(=O)N[C@H](C)C(=O)N[C@@H](C(=O)N[C@H](CCCCN)C(=O)N[C@H](CC(=O)O)C(=O)N[C@H](Cc1ccc(O)cc1)C(=O)N[C@H](Cc1ccccc1)C(=O)N[C@H](C)C(=O)N[C@H](CCCCN)C(=O)N[C@H](Cc1ccccc1)C(=O)N[C@H](Cc1c[nH]c2ccccc12)C(=O)N[C@H](CC(=O)O)C(N)=O)C(C)C) [Rev-D4F],less efficient,more efficient,less efficient,more efficient,associated spontaneously,significantly decreased,significantly decreased,reduced,46,–,–,–,–,–,–,significantly greater,inhibit,significantly greater,inhibit,inhibit
